Data: patent US6060608A, “Analogs of CC-1065 and the duocarmycins” (The Scripps Research Institute, priority 1999, dated 2000)
Where “and” joins values, the source holds several entries; their conditions need not be identical. Equal entries are not always repeated. Entries after “also recorded” stand apart in the source; their conditions may differ.

How the values were obtained:
w794 duplex DNA = test: DNA alkylation selectivity and efficiency within w794 DNA, thermally-induced strand cleavage and PAGE; assay type: biochemical, SV40; settings: for DNA alkylation, failure to alkylate: 105-107: 37° C., 72 h, up to 10^-2 M, 108 and 110: 10^-3 M or lower
Text: DNA Alkylation Selectivity and Efficiency. The DNA alkylation properties of the agents were examined within w794 duplex DNA, a 144 base-pair segment of duplex DNA for which comparative results are available for related agents. The alkylation site identification and the assessment of the relative selectivity among the available sites were obtained by thermally-induced strand cleavage of the singly 5' end-labeled duplex DNA after exposure to the agents. Following treatment of the end-labeled duplex DNA with a range of agent concentrations, the unbound agent was removed by EtOH precipitation of the DNA. Redissolution of the DNA in aqueous buffer, thermolysis (100° C., 30 min) to induce strand cleavage at the sites of DNA alkylation, denaturing high resolution polyacrylamide gel electrophoresis (PAGE) adjacent to Sanger dideoxynucleotide sequencing standards, and autoradiography led to identification of the DNA cleavage and alkylation sites. The DNA alkylation reaction selectivities observed under the incubation conditions for the agents detailed herein have proven identical to the alkylation selectivities observed with shorter or extended reaction periods or when the reactions were conducted at different temperatures (37 or 4° C., 0.5-7 d). As discussed below, the rates and efficiencies but not final relative efficiencies of DNA alkylation were altered by changing the reaction temperatures.
DNA Alkylation Properties. […] The DNA alkylation reaction was examined within w794 DNA for which comparative results are available for past agents. The alkylation site identification was obtained by thermal strand cleavage of the singly 5' end-labeled duplex DNA after exposure to the agents. Following treatment of the labeled DNA with a range of agent concentrations, the unbound agent was removed by EtOH precipitation of the DNA. Redissolution of the DNA in aqueous buffer, thermolysis at 100° C. (30 min) to induce depurination and strand cleavage at the adenine N3 or guanine N3 minor groove alkylation sites, denaturing high resolution PAGE adjacent to Sanger sequencing standards and autoradiography provided the DNA cleavage and alkylation sites.
DNA Alkylation Studies: selectivity and Efficiency. General procedures, the preparation of singly ^32 P 5' end-labeled double stranded DNA, the agent binding studies, gel electrophoresis, and autoradiography were conducted according to standard procedures. Eppendorf tubes containing the 5' end-labeled DNA (9 μL) in TE buffer (10 mM Tris, 1 mM EDTA, pH 7.5) were treated with the agent in DMSO (1 μL at the specified concentration). The solution was mixed by vortexing and brief centrifugation and subsequently incubated at 4 or 25° C. for 24 h (natural enantiomers) and 25 or 37° C. (unnatural enantiomers) for 72 h. The covalently modified DNA was separated from unbound agent by EtOH precipitation and resuspended in TE buffer (10 μL). The solution of DNA in an Eppendorf tube sealed with parafilm was warmed at 100° C. for 30 min to induce cleavage at the alkylation sites, allowed to cool to 25° C. and centrifuged. Formamide dye (0.03% xylene cyanol FF, 0.03% bromophenol blue, 8.7% Na2 EDTA 250 mM) was added (5 μL) to the supernatant. Prior to electrophoresis, the sample was denatured by warming at 100° C. for 5 min, placed in an icebath, and centrifuged, and the supernatant (3 μL) was loaded directly onto the gel. Sanger dideoxynucleotide sequencing reactions were run as standards adjacent to the reaction samples. Polyacrylamide gel electrophoresis (PAGE) was run on an 8% sequencing gel under denaturing conditions (8 M urea) in TBE buffer (100 mM Tris, 100 mM boric acid, 0.2 mM Na2 EDTA) followed by autoradiography.
DNA Alkylation of w794 DNA. Eppendorf tubes containing the 5'-end labeled DNA (9 μL) in TE buffer (10 mM Tris, 1 mM EDTA, pH 7.2) were treated with the agent in DMSO (1 μL at the specified concentration). […]

calf thymus DNA = test: DNA alkylation of calf thymus DNA, recovery of unreacted agent; assay type: biochemical; settings: 37° C., 48-72 h, 1:51 agent:base-pair ratio
Description: DNA Alkylation of Calf Thymus DNA. An aliquot of agent (5 μL, 0.01 M in DMSO) was added to a calf thymus DNA solution (0.45 mL, 3.79 mg/mL, 10 mM sodium phosphate, pH 7.0, base-pair:agent=51:1). The DNA-agent mixtures were incubated at 37° C. for 72 h for both enantiomers of 105, 106 and 107 or at 37° C. for 48 h for 108, 109, 110 and 111. For both enantiomers of 105, 106, 108 and 110, the unreacted materials were extracted with EtOAc (0.5 mL×4). The combined extracts were dried and dissolved in EtOAc (0.9 mL) and the quantities of 105, 106, 108, and 110 were determined by UV. Additional extraction with EtOAc (0.5 mL×4) was carried out, and the amounts of combined material were determined by UV. No additional material was recovered. For the ionic agents 107, 109 and 111, the unreacted materials were recovered from the supernatants of EtOH precipitation of the DNA. The EtOH in the supernatant was removed by a stream of N2. The supernatants were diluted to 0.9 mL with H2 O and the recovered quantities of 107, 109, and 111 were determined by UV.
These studies were conducted alongside control reactions conducted in the absence of DNA. An aliquot of agent (5 μL, 0.01 M in DMSO) was added to sodium phosphate buffer (0.45 mL, 10 mM, pH 7.0). The agent-buffer mixtures were incubated at 37° C. for 72 h for both enantiomers of 105, 106 and 107 or at 37° C. for 48 h for 108, 109, 110 and 111. For 105, 106, 108 and 110, the materials were extracted with EtOAc (0.5 mL×4). The combined extracts were dried and dissolved in EtOAc (0.9 mL) and the agent quantities were determined by UV. For the ionic agents 107, 109 and 111, the agent-buffer mixtures were diluted to 0.9 mL with H2 O and their quantities were determined by UV.

[1] = tested on: w794 DNA, 5'-AATTA high affinity site; test: Relative rate of DNA alkylation at the w794 5'-AATTA high affinity site; assay type: biochemical, SV40; settings: 25° C.
Description: Rate of DNA Alkylation. The relative rates of DNA alkylation for the natural enantiommers of CCBI-TMI (35) and CCBI-indole2 (37) versus those of the corresponding CBI and MCBI agents were measured at the single high affinity site in w794, 5'-AATTA. The relative rates earlier studies of DNA alkylation for MCBI-TMI, CBI-TMI, and duocarmycin SA were determined to be quite similar at 4° C., 1.8:1.0:0.9, respectively. […] In prior studies, we have highlighted similar observations with agents that span a much larger range of relative reactivities.
The DNA alkylation selectivity and efficiency of the natural enantiomers of 304-307 were compared with that of 1 in w794 DNA. […] These trends in the overall efficiency of DNA alkylation parallel the relative trends in cytotoxic potency.
(§1) DNA Alkylation Relative Rate of (+)-CCBI-TMI (35), (+)-CBI-TMI, and (+)-MCBI-TMI. Following the procedure detailed above, Eppendorf tubes containing 5' end-labeled w794 DNA (9 μL) in TE buffer (pH 7.5) were treated with (+)-CCBI-TMI (35), (+)-CBI-TMI, or (+)-MCBI-TMI (1 μL, 10^-6 M in DMSO). The solutions were mixed and incubated at 25° C. for 2, 4, 6, 9, 12, 15, and 24 h, respectively. Subsequent isolation of the alkylated DNA by EtOH precipitation, resuspension in TE buffer (10 μL, pH 7.5), thermolysis (30 min, 100° C.), PAGE, and autoradiography were conducted as detailed above. Relative rates for alkylation at the w794 high-affinity 5'-AATTA site were derived from the slopes of the plots of percent integrated optical density (IOD) of the high-affinity alkylation cleavage bands versus time.
as §1, with “(+)-CCBI-indole2 (37), (+)-CBI-indole2,” for “(+)-CCBI-TMI (35), (+)-CBI-TMI,”, “(+)-MCBI-indole2.” for “(+)-MCBI-TMI.”, “(+)-CCBI-indole2 (37), (+)-CBI-indole2, and (+)-MCBI-indole2” for “(+)-CCBI-TMI (35), (+)-CBI-TMI, or (+)-MCBI-TMI”

Compound	DNA alkylation sequence selectivity (w794 duplex DNA)	DNA alkylation of calf thymus DNA (calf thymus DNA)	other results
C[C@@H](O)[C@H](NC(=O)CCC(=O)N1CC(CCl)c2c1cc(O)c1ccccc21)C(=O)NCCc1nc(-c2nc(C(=O)NCCC[S+](C)C)cs2)cs1 (stereo partly drawn) [compound 111, 3-[2'-(2-((4-(1-Chloromethyl-5-hydroxy-1,2-dihydro-3H-benz[e]indol-3-yl)-1,4-diooxobutyl)-L-threonyl)aminoethyl)-2,4'-bithiazole-4-carboxamido]propyl Dimethyl Sulfonium Iodide]	5'-AA, 5'-TA and identical to that of N-BOC-CBI (123) and 116	perceptible covalent attachment to the calf thymus DNA	DNA alkylation properties, comparison in words (w794 duplex DNA): only slightly more effective than 116
CSCCCNC(=O)c1csc(-c2csc(CCNC(=O)CCC(=O)N3CC(CCl)c4c3cc(O)c3ccccc43)n2)n1 (stereo not drawn) [compound 108, 3-[2'-(2-(2-(1-Chloromethyl-5-hydroxy-1,2-dihydro-3H-benz[e]indol-3-yl)-1,4-dioxobutyl)aminoethyl)-2,4'-bithiazole-4-carboxamido]propyl Methyl Sulfide]	–	recovered nearly quantitatively	DNA alkylation, failure to alkylate (w794 duplex DNA): failed to alkylate DNA at concentrations of 10^-3 M or lower; also recorded: no reaction is observed
COc1cc2cc(C(=O)N3CC4CC45C3=CC(=O)c3ccc(C#N)cc35)[nH]c2c(OC)c1OC (stereo not drawn) [compound 35]	strong preference but not absolute requirement for the fourth 5' base to be A or T versus G or C	–	DNA alkylation more efficient than MCBI or CBI based agents (w794 duplex DNA): 1.5-2 ×; relative rate of DNA alkylation, TMI series ([1]; 10^-6 M): 2.5 ×
C[S+]([O-])CCCNC(=O)c1csc(-c2csc(CCNC(=O)C(=O)N3CC(CCl)c4c3cc(O)c3ccccc43)n2)n1 (stereo not drawn) [compound 106, 3-[2'-(2-(2-(1-Chloromethyl-5-hydroxy-1,2-dihydro-3H-benz[e]indol-3-yl)-1,2-dioxoethyl)aminoethyl)-2,4'-bithiazole-4-carboxamido]propyl Methyl Sulfoxide]	–	recovered nearly quantitatively	–
C[S+](C)CCCNC(=O)c1csc(-c2csc(CCNC(=O)CCC(=O)N3CC(CCl)c4c3cc(O)c3ccccc43)n2)n1.[I-] (stereo not drawn) [compound 109, 3-[2'-(2-(4-(1-Chloromethyl-5-hydroxy-1,2-dihydro-3H-benz[e]indol-3-yl)-1,4-dioxobutyl)aminoethyl)-2,4'-bithiazole-4-carboxamido]propyl Dimethyl Sulfonium Iodide]	5'-AA, 5'-TA and identical to that of N-BOC-CBI (123) and 116	perceptible covalent attachment to the calf thymus DNA	DNA alkylation properties, comparison in words (w794 duplex DNA): only slightly more effective than 116
N#Cc1ccc2c(c1)C13CC1CN(C(=O)c1cc4cc(NC(=O)c5cc6ccccc6[nH]5)ccc4[nH]1)C3=CC2=O (single isomer, unassigned) [compound 37]	stronger preference for the fourth base to be A or T but that preference extended to include a fifth 5' A or T base	–	DNA alkylation more efficient than MCBI or CBI based agents (w794 duplex DNA): 1.5-2 ×; relative rate of DNA alkylation, indole2 series [1]: 2.5 ×
COc1ccc2c(c1)C13CC1CN(C(=O)c1cc4cc(NC(=O)c5cc6ccccc6[nH]5)ccc4[nH]1)C3=CC2=O (single isomer, unassigned) [MCBI-indole2]	–	–	relative rate of DNA alkylation, indole2 series [1]: 1.4 ×
CSCCCNC(=O)c1csc(-c2csc(CCNC(=O)[C@@H](NC(=O)CCC(=O)N3CC(CCl)c4c3cc(O)c3ccccc43)[C@@H](C)O)n2)n1 (stereo partly drawn) [compound 110, 3-[2'-(2-((4-(1-Chloromethyl-5-hydroxy-1,2-dihydro-3H-benz[e]indol-3-yl)-1,4-dioxobutyl)-L-threonyl)aminoethyl)-2,4'-bithiazole-4-carboxamido]propyl Methyl Sulfide]	–	recovered nearly quantitatively	DNA alkylation, failure to alkylate (w794 duplex DNA): failed to alkylate DNA at concentrations of 10^-3 M or lower
